Entries after “also recorded” stand apart in the source; their conditions may differ. Read-outs that look alike come from different tables or passages of the source.
How the values were obtained:
OCI-AML4 = assay: Cell viability, panel of AML cell lines; type: cell-based; conditions: Homo sapiens, OCI-AML4 cells
Method: (§1) Representative human AML cell lines (FIG. 2A; upper and lower panels) HL60/VCR and (FIG. 2B; upper and lower panels) OCI-AML2 were treated with SACLAC for 24 and 48 hours. Viability was assessed by MTS assay at 24 and 48 hours and apoptosis was assessed by flow cytometry at 48 hours. Upper panels represent % viability and lower panels indicate % apoptosis.
(§2) Two representative human-derived AML cell lines, HL60/VCR and OCI-AML2, are shown. These studies have been expanded to a large panel of additional human AML cell lines (n=30, Table 1).

SET2 = assay: Cell viability, panel of AML cell lines; type: cell-based; conditions: Homo sapiens, SET-2, SET2 cells
Method: as §1, §2

HL60 = assay: Cell viability, panel of AML cell lines; type: cell-based; conditions: Homo sapiens, HL-60, HL60 cells
Method: as §1, §2

MOLM-14 = assay: Cell viability, panel of AML cell lines; type: cell-based; conditions: Homo sapiens, MOLM-14 cells
Method: as §1, §2

MM-6 = assay: Cell viability, panel of AML cell lines; type: cell-based; conditions: Homo sapiens, MM-6 cells
Method: as §1, §2

HL60/VCR = assay: Cell viability, panel of AML cell lines; type: cell-based; conditions: Homo sapiens, HL60/VCR cells (drug resistant variant)
Method: as §1, §2

Kasumi-1 = assay: Cell viability, panel of AML cell lines; type: cell-based; conditions: Homo sapiens, Kasumi-1 cells
Method: as §1, §2

OCI-AML2 = assay: Cell viability, panel of AML cell lines; type: cell-based; conditions: Homo sapiens, OCI-AML2 cells
Method: as §1, §2

SKM1 = assay: Cell viability, panel of AML cell lines; type: cell-based; conditions: Homo sapiens, SKM-1, SKM1 cells
Method: as §1, §2

MOLM-13 = assay: Cell viability, panel of AML cell lines; type: cell-based; conditions: Homo sapiens, MOLM-13 cells
Method: as §1, §2

EOL-1 = assay: Cell viability, panel of AML cell lines; type: cell-based; conditions: Homo sapiens, EOL1, EOL-1 cells
Method: as §1, §2

ML2 = assay: Cell viability, panel of AML cell lines; type: cell-based; conditions: Homo sapiens, ML-2, ML2 cells
Method: as §1, §2

HL60/ABTR = assay: Cell viability, panel of AML cell lines; type: cell-based; conditions: Homo sapiens, HL-60, HL60/ABTR cells (drug resistant variant)
Method: as §1, §2

OCI-AML3 = assay: Cell viability, panel of AML cell lines; type: cell-based; conditions: Homo sapiens, OCI-AML-3, OCI-AML3 cells
Method: as §1, §2

U937 = assay: Cell viability, panel of AML cell lines; type: cell-based; conditions: Homo sapiens, U-937, U937 cells
Method: as §1, §2

NB4 = assay: Cell viability, panel of AML cell lines; type: cell-based; conditions: Homo sapiens, NB-4, NB4 cells
Method: as §1, §2

OCI-M2 = assay: Cell viability, panel of AML cell lines; type: cell-based; conditions: Homo sapiens
Method: as §1, §2

NOMO1 = assay: Cell viability, panel of AML cell lines; type: cell-based; conditions: Homo sapiens, NOMO-1, NOMO1 cells
Method: as §1, §2

THP-1 = assay: Cell viability, panel of AML cell lines; type: cell-based; conditions: Homo sapiens, THP-1 cells
Method: as §1, §2

acid ceramidase (AC) [1] = target: T1, acid ceramidase (AC) (Homo sapiens, UniProt Q13510); assay: LC/MS analysis of tryptic digests of AC incubated with SACLAC; type: binding; set-up: expressed in transfected cells; conditions: peptide C,T,S,I,V,A,E,D,K
T1 sequence (Q13510 143-395 limits assumed): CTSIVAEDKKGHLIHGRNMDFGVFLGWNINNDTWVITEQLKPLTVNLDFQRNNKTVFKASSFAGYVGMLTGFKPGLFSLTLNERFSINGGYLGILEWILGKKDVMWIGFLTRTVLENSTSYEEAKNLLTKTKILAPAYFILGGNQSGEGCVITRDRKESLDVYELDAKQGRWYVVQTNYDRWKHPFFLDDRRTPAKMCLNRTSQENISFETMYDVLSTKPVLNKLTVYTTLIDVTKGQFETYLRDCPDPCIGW
T1 sequence (Q13510 22-142 limits assumed): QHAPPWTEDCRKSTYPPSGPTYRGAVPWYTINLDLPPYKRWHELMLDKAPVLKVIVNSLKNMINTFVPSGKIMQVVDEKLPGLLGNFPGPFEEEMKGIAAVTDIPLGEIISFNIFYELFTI

acid ceramidase (AC) [2] = target: T1, acid ceramidase (AC); assay: AC activity in AML cell lines, fluorogenic AC substrate; type: cell-based; set-up: endogenous in cells; host or cells: HL60/VCR, OCI-AML2, THP-1 human AML cell lines
Method: Ceramide analog SACLAC (FIG. 1A) inhibits AC activity in representative human AML cell lines (FIG. 1B) HL60/VCR and (FIG. 1C) OCI-AML2 after 24 hours. Activity was assessed by incubation with a fluorogenic AC substrate. Published AC inhibitor LCL204 is included for comparison.
The ordinate represents AC Activity as percent of control and the abscissa represents SACLAC or LCL204 concentration.

CCCCCCCCCCCCCCC[C@@H](O)[C@H](CO)NC(=O)CCl [SACLAC, 2-chloro-N-((2S,3R)-1,3-dihydroxyoctadecan-2-yl)acetamide]
EC50 (OCI-AML4; 24 h, read-out: EC50 24 h): 1.4 µM
EC50 (OCI-AML4; 48 h, read-out: EC50 48 h): 0.7 µM
EC50 (SET2; 24 h, read-out: EC50 24 h): 2.6 µM
EC50 (SET2; 48 h, read-out: EC50 48 h): 3.3 µM
EC50 (HL60; 24 h, read-out: EC50 24 h): 1.8 µM
EC50 (HL60; 48 h, read-out: EC50 48 h): 1.2 µM
EC50 (MOLM-14; 24 h, read-out: EC50 24 h): 0.5 µM
EC50 (MOLM-14; 48 h, read-out: EC50 48 h): 0.5 µM
EC50 (MM-6; 24 h, read-out: EC50 24 h): 7.8 µM
EC50 (MM-6; 48 h, read-out: EC50 48 h): 6 µM
EC50 (HL60/VCR; 24 h, read-out: EC50 24 h): 3.3 µM
EC50 (HL60/VCR; 48 h, read-out: EC50 48 h): 2.4 µM
EC50 (Kasumi-1; 24 h, read-out: EC50 24 h): 0.8 µM
EC50 (Kasumi-1; 48 h, read-out: EC50 48 h): 0.8 µM
EC50 (OCI-AML2; 24 h, read-out: EC50 24 h): 1.8 µM
EC50 (OCI-AML2; 48 h, read-out: EC50 48 h): 1.1 µM
EC50 (SKM1; 24 h, read-out: EC50 24 h): 1.6 µM
EC50 (SKM1; 48 h, read-out: EC50 48 h): 0.7 µM
EC50 (MOLM-13; 24 h, read-out: EC50 24 h): 1.1 µM
EC50 (MOLM-13; 48 h, read-out: EC50 48 h): 1.4 µM
EC50 (EOL-1; 24 h, read-out: EC50 24 h): 1 µM
EC50 (EOL-1; 48 h, read-out: EC50 48 h): 1.1 µM
EC50 (ML2; 24 h, read-out: EC50 24 h): 1.7 µM
EC50 (ML2; 48 h, read-out: EC50 48 h): 1.8 µM
EC50 (HL60/ABTR; 24 h, read-out: EC50 24 h): 2.5 µM
EC50 (HL60/ABTR; 48 h, read-out: EC50 48 h): 3 µM
EC50 (OCI-AML3; 24 h, read-out: EC50 24 h): 0.6 µM
EC50 (OCI-AML3; 48 h, read-out: EC50 48 h): 0.4 µM
EC50 (U937; 24 h, read-out: EC50 24 h): 1 µM
EC50 (U937; 48 h, read-out: EC50 48 h): 1.7 µM
EC50 (NB4; 24 h, read-out: EC50 24 h): 0.2 µM
EC50 (NB4; 48 h, read-out: EC50 48 h): 0.6 µM
EC50 (OCI-M2; OCI-M2, 24 h, read-out: EC50 24 h): > 10 µM
EC50 (OCI-M2; OCI-M2, 48 h, read-out: EC50 48 h): > 10 µM
viability at 10 µM (OCI-M2; OCI-M2 cells, 10 μM, read-out: viable cells at the highest tested dose): 60%
EC50 (NOMO1; 24 h, read-out: EC50 24 h): 1.1 µM
EC50 (NOMO1; 48 h, read-out: EC50 48 h): 0.8 µM
EC50 (THP-1; 24 h, read-out: EC50 24 h): 2.6 µM
EC50 (THP-1; 48 h, read-out: EC50 48 h): 2.2 µM
covalent modification of AC peptide (acid ceramidase (AC) [1]): formation of the expected lipid modified peptide
AC activity (acid ceramidase (AC) [2]; HL60/VCR and OCI-AML2, 24 hours): decreased AC activity at all tested doses; also recorded: nearly complete inhibition at nanomolar concentrations
AC activity, compared with LCL204 (acid ceramidase (AC) [2]; HL60/VCR, THP-1 and OCI-AML2 cells, 24 h): inhibited AC activity more potently than LCL204

From patent publication US11426371B2, “Compositions and methods for treating cancer” (University of Virginia Patent Foundation, priority 2017, dated 2022)
